From patent US20240066136A1, “MODIFIED PROTEINS AND PROTEIN DEGRADERS” (Cullgen (Shanghai), Inc., priority 2020, published 2024)

Target: Human DDB1 (Homo sapiens (Human), UniProt Q16531)
Assay: Surface plasmon resonance (SPR) binding assay to immobilized His-DDB1
Settings: SPR, DDB1 binding moieties with linkers and/or target protein binding moiety; read-out: Binding (Kd)
Procedure: The binding affinities of heterobifunctional compounds to DDB1 were determined by SPR assay. Purified His-DDB1 proteins were immobilized on a CM5 sensor chip, and a dose range of compound solutions were injected in multi-cycle kinetic format. Data were fit to steady state model and gave equivalent dissociation constants (KD).
Protein Expression and Purification. Human DDB1 (UniPro: Q16531) coding sequences were cloned into pFastBacHTB vector and were expressed in High5 cells using Bac-to-Bac baculovirus expression system (Thermo Fisher Scientific). […] DDB1 proteins were obtained from supernatant of cell lysates and purified through sequential application of Ni affinity (Ni-NTA column. Bio-Rad), and size-exclusion (Superdex 200 16/600GL column, GE Healthcare) column chromatography.
Surface plasmon resonance (SPR) binding assay. All SPR studies were performed on a Biacore X100 plus or T200 instrument (GE Healthcare). Immobilization of purified His-DDB1 was carried out at 25° C. using a CM5 sensor chip. The surface was pre-equilibrated in HBS-EP running buffer (10 mM HEPES, pH7.4, 150 mM NaCl, 3 mM EDTA, 0.05% P20), then activated with EDC/NHS. His-DDB1 proteins were immobilized by amine coupling to a density of 11,000-13,000 resonance units (RUs) on flow cell FC2, whereas flow cell FC1 was used as reference. Both DDB1 immobilized and reference surfaces were deactivated with 1M ethanolamine.
All interaction experiments were performed at 25° C. […] Compound Solutions were injected individually in multi-cycle kinetic format without regeneration (flow rate […], association time 120 s, dissociation time 120 s). Sensorgrams from reference surfaces and blank injections were subtracted from the raw data (double-referencing) and the data was solvent-corrected prior to analysis. All data were fit to steady state affinity model using Biacore Evaluation Software and gave equivalent dissociation constants (KD).

Human DDB1, sequence (Q16531 whole entry): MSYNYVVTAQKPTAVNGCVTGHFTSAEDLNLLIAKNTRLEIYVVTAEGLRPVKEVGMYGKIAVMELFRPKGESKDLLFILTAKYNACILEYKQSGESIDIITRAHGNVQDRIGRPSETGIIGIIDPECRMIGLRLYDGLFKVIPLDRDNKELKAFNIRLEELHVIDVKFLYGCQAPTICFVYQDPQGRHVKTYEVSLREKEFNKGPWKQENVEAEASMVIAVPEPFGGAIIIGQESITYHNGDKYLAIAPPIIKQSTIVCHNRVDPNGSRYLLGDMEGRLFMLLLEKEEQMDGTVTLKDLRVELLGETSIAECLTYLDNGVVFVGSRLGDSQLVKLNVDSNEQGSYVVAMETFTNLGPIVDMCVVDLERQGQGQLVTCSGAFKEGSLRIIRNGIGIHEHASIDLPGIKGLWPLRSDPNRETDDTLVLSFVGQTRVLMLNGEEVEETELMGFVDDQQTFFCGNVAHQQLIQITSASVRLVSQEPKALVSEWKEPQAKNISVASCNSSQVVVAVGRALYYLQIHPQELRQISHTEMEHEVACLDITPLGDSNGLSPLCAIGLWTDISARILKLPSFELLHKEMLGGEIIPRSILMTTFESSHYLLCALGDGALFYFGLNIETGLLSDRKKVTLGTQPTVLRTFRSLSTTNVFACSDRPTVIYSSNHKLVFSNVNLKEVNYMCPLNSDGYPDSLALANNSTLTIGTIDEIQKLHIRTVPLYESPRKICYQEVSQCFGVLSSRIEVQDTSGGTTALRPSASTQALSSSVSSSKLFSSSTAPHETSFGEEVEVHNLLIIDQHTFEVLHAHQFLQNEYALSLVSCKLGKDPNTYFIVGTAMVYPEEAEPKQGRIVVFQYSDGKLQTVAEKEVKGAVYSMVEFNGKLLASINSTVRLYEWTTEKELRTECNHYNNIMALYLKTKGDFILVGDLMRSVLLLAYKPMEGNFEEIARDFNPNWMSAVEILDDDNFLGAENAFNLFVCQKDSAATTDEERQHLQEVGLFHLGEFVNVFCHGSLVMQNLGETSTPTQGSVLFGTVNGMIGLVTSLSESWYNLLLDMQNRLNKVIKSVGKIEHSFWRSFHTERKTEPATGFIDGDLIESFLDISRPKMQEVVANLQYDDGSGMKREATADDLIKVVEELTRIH

First: NCCOCCOCCOCCC(=O)Nc1ccccc1C(=O)Nc1ncc([N+](=O)[O-])s1 [BL-3, 2-(3-(2-(2-(2-Aminoethoxy)ethoxy)ethoxy)propanamido)-N-(5-nitrothiazol-2-yl)benzamide]
Second: Cc1nc(NC(=O)c2ccccc2NC(=O)CCCCCN)sc1[N+](=O)[O-] [BL-1, 2-(6-Aminohexanamido)-N-(4-methyl-5-nitrothiazol-2-yl)benzamide]
The Kd of the first is higher: 20 to 100 µM for the first, under 20 µM for the second.

`CC(=O)Nc1cc(NCCCCN)ccc1C(=O)Nc1ccc([N+](=O)[O-])s1` [BL-20, 2-Acetamido-4-((4-aminobutyl)amino)-N-(5-nitrothiophen-2-yl)benzamide] and `CC(=O)Nc1cc(NCCOCCNC(=O)CN2CCC(n3nc(N4CCCc5cc(-c6cnn(C)c6)c(C(F)F)cc54)c4c3CCN(C(C)=O)C4)CC2)ccc1C(=O)Nc1nc(C)c([N+](=O)[O-])s1` [D-7, 2-Acetamido-4-((2-(2-(2-(4-(5-acetyl-3-(7-(difluoromethyl)-6-(1-methyl-1H-pyrazol-4-yl)-3,4-dihydroquinolin-1 (2H)-yl)-4,5,6,7-tetrahydro-1H-pyrazolo[4,3-c]pyridin-1-yl)piperidin-1-yl)acetamido)ethoxy)ethyl)amino)-N-(4-methyl-5-nitrothiazol-2-yl)benzamide] fall in the same range of Kd: 20 to 100 µM for the first, 20 to 100 µM for the second.

Same assay, conditions: SPR, steady state affinity model, 25° C.; read-out: Binding (DDB1 binder activities, Kd)

`NS(=O)(=O)c1ccccc1C(=O)Nc1ncc([N+](=O)[O-])s1` [B-80, N-(5-Nitrothiazol-2-yl)-2-sulfamoylbenzamide] and `CN(C)S(=O)(=O)c1ccccc1C(=O)Nc1ncc([N+](=O)[O-])s1` [B-82, 2-(N,N-dimethylsulfamoyl)-N-(5-nitrothiazol-2-yl)benzamide] fall in the same range of Kd: 20 to 100 µM for the first, 20 to 100 µM for the second.

Compared with `CC(=O)Nc1ccccc1C(=O)Nc1nc(-c2ccccc2)c([N+](=O)[O-])s1` [B-34, 2-acetamido-N-(5-nitro-4-phenylthiazol-2-yl)benzamide], `CC(=O)Nc1ccccc1C(=O)Nc1nc(-c2ccccc2)cs1` [B-46, 2-acetamido-N-(4-phenylthiazol-2-yl)benzamide] is higher in Kd: under 20 µM for the first, 20 to 100 µM for the second. The first binds more tightly here.

Compared with `O=C(Nc1ncc(Cl)s1)c1ccccc1O` [B-10], `Cc1cnc(NC(=O)c2ccccc2C)s1` [B-175, 2-Methyl-N-(5-methylthiazol-2-yl)benzamide] is lower in Kd: 20 to 100 µM for the first, under 20 µM for the second.

First: CCCCNc1ccc(C(=O)Nc2nc(C3CC3)c([N+](=O)[O-])s2)c(-c2ccccc2)c1 [B-115, 5-(Butylamino)-N-(4-cyclopropyl-5-nitrothiazol-2-yl)-[1,1′-biphenyl]-2-carboxamide]
Second: CCCCNc1ccc(C(=O)Nc2ncc([N+](=O)[O-])s2)c(-c2ccccc2)c1 [B-110, 5-(Butylamino)-N-(5-nitrothiazol-2-yl)-[1,1′-biphenyl]-2-carboxamide]
The Kd of the first is higher: over 100 µM for the first, under 20 µM for the second. The second binds more tightly here.

Compared with `CC(=O)Nc1ccccc1C(=O)Nc1ccc(Br)cc1` [B-59, 2-Acetamido-N-(4-bromophenyl)benzamide], `CC(=O)Nc1ccccc1C(=O)Nc1cccc([N+](=O)[O-])c1` [B-124, 2-Acetamido-N-(3-nitrophenyl)benzamide] is lower in Kd: 20 to 100 µM for the first, under 20 µM for the second.

`CCCNC(=O)c1cccc(OC(C)=O)c1C(=O)Nc1ncc([N+](=O)[O-])s1` [B-14, 2-((5-Nitrothiazol-2-yl)carbamoyl)-3-(propylcarbamoyl)phenyl acetate] and `CCCNC(=O)c1cccc(C(=O)Nc2ncc([N+](=O)[O-])s2)c1OC(C)=O` [B-11, 2-((5-Nitrothiazol-2-yl)carbamoyl)-6-(propylcarbamoyl)phenyl acetate] fall in the same range of Kd: 20 to 100 µM for the first, 20 to 100 µM for the second.

`CC(=O)Nc1ccccc1C(=O)Nc1ncc(C)s1` [B-42, 2-Acetamido-N-(5-methylthiazol-2-yl)benzamide] and `CC(=O)Nc1ccccc1C(=O)Nc1ncc(F)s1` [B-36, 2-Acetamido-N-(5-fluorothiazol-2-yl)benzamide] fall in the same range of Kd: 20 to 100 µM for the first, 20 to 100 µM for the second.

`O=C1CCCCN1c1ncc([N+](=O)[O-])s1` [B-99, 1-(5-Nitrothiazol-2-yl)piperidin-2-one] and `O=C1CCCCCN1c1ncc([N+](=O)[O-])s1` [B-100, 1-(5-Nitrothiazol-2-yl)azepan-2-one] fall in the same range of Kd: 20 to 100 µM for the first, 20 to 100 µM for the second.

First: CCNc1cccc(OCC)c1C(=O)Nc1ncc([N+](=O)[O-])s1 [B-168, 2-Ethoxy-6-(ethylamino)-N-(5-nitrothiazol-2-yl)benzamide]
Second: CCCC(=O)Nc1cccc(OC(C)=O)c1C(=O)Nc1ncc([N+](=O)[O-])s1 [B-23, 3-Butyramido-2-((5-nitrothiazol-2-yl)carbamoyl)phenyl acetate]
The Kd of the first is higher: over 100 µM for the first, 20 to 100 µM for the second.

`O=C(Nc1cccc(N2CCOC2=O)c1)c1ccccc1C1CCCN1` (centres unmarked) [B-140, N-(3-(2-oxooxazolidin-3-yl)phenyl)-2-(pyrrolidin-2-yl)benzamide] and `CC(=O)Nc1ccccc1C(=O)Nc1ccc(Cl)cn1` [B-54, 2-Acetamido-N-(5-chloropyridin-2-yl)benzamide] fall in the same range of Kd: 20 to 100 µM for the first, 20 to 100 µM for the second.

First: CCOc1cc(NC2CCOCC2)ccc1C(=O)Nc1ncc([N+](=O)[O-])s1 [B-98, 2-Ethoxy-N-(5-nitrothiazol-2-yl)-4-((tetrahydro-2H-pyran-4-yl)amino)benzamide]
Second: CCCCNc1ccc(OCC)c(C(=O)Nc2ncc([N+](=O)[O-])s2)c1 [B-155, 5-(Butylamino)-2-ethoxy-N-(5-nitrothiazol-2-yl)benzamide]
The Kd of the first is lower: 20 to 100 µM for the first, over 100 µM for the second. The first binds more tightly here.

Compared with `CCCCNc1ccc(C(=O)Nc2ccc([N+](=O)[O-])s2)c(C(C)C)c1` [B-134, 4-(Butylamino)-2-isopropyl-N-(5-nitrothiophen-2-yl)benzamide], `CC(C)c1ccccc1C(=O)Nc1ncc([N+](=O)[O-])s1` [B-84, 2-Isopropyl-N-(5-nitrothiazol-2-yl)benzamide] is lower in Kd: over 100 µM for the first, under 20 µM for the second. The second binds more tightly here.

First: CC(=O)Nc1ccccc1C(=O)Nc1ccc([N+](=O)[O-])cn1 [B-53, 2-Acetamido-N-(5-nitropyridin-2-yl)benzamide]
Second: CC(=O)Nc1ccccc1C(=O)Nc1ccccn1 [B-123, 2-Acetamido-N-(pyridin-2-yl)benzamide]
The Kd of the first is higher: 20 to 100 µM for the first, under 20 µM for the second. The second binds more tightly here.

`CCCC(=O)Nc1cccc(C(=O)Nc2ncc([N+](=O)[O-])s2)c1OC(=O)CCC` [B-24, 2-Butyramido-6-((5-nitrothiazol-2-yl)carbamoyl)phenyl butyrate] and `CCCNC(=O)c1ccc(OC(C)=O)c(C(=O)Nc2ncc([N+](=O)[O-])s2)c1` [B-13, 2-((5-Nitrothiazol-2-yl)carbamoyl)-4-(propylcarbamoyl)phenyl acetate] fall in the same range of Kd: 20 to 100 µM for the first, 20 to 100 µM for the second.

`CC(=O)Nc1ccccc1C(=O)Nc1nc(C)c(Cl)s1` [B-40, 2-acetamido-N-(5-chloro-4-methylthiazol-2-yl)benzamide] and `CC(=O)Nc1ccccc1C(=O)Nc1nc(C)c([N+](=O)[O-])s1` [B-27, 2-Acetamido-N-(4-methyl-5-nitrothiazol-2-yl)benzamide] fall in the same range of Kd: 20 to 100 µM for the first, 20 to 100 µM for the second.

`CC(=O)Nc1ccccc1C(=O)Nc1ccc(C(C)C)s1` [B-129, 2-Acetamido-N-(5-isopropylthiophen-2-yl)benzamide] and `CC(=O)Nc1ccccc1C(=O)Nc1ccc(C#N)s1` [B-128, 2-Acetamido-N-(5-cyanothiophen-2-yl)benzamide] fall in the same range of Kd: 20 to 100 µM for the first, 20 to 100 µM for the second.

`O=C(Nc1ncc([N+](=O)[O-])s1)c1ccccc1NC(=O)C1CC1` [B-62, 2-(Cyclopropanecarboxamido)-N-(5-nitrothiazol-2-yl)benzamide] and `O=C(Nc1ncc([N+](=O)[O-])s1)c1ccccc1Br` [B-93, 2-Bromo-N-(5-nitrothiazol-2-yl)benzamide] fall in the same range of Kd: 20 to 100 µM for the first, 20 to 100 µM for the second.

First: COc1ccccc1C(=O)Nc1ncc([N+](=O)[O-])s1 [B-73, 2-methoxy-N-(5-nitrothiazol-2-yl)benzamide]
Second: CC(=O)Oc1ccccc1C(=O)Nc1ncc([N+](=O)[O-])s1 [B-1, 2-((5-nitrothiazol-2-yl)carbamoyl)phenylacetate]
The Kd of the first is higher: over 100 µM for the first, 20 to 100 µM for the second.

First: CC(=O)Oc1ccccc1C(=O)N(C)c1ncc([N+](=O)[O-])s1 [B-8, 2-(Methyl(5-nitrothiazol-2-yl)carbamoyl)phenyl acetate]
Second: CC(=O)Nc1ccccc1C(=O)Nc1nc(Br)c([N+](=O)[O-])s1 [B-30, 2-acetamido-N-(4-bromo-5-nitrothiazol-2-yl)benzamide]
The Kd of the first is lower: under 20 µM for the first, 20 to 100 µM for the second. The first binds more tightly here.

Compared with `CC(=O)Nc1ccccc1C(=O)Nc1ncc(S(C)(=O)=O)s1` [B-47, 2-Acetamido-N-(5-(methylsulfonyl)thiazol-2-yl)benzamide], `CC(=O)Nc1ccccc1C(=O)Nc1ncc(C#N)s1` [B-39, 2-acetamido-N-(5-cyanothiazol-2-yl)benzamide] is lower in Kd: over 100 µM for the first, 20 to 100 µM for the second.

First: O=C1CCCCCCN1c1ncc([N+](=O)[O-])s1 [B-101, 1-(5-Nitrothiazol-2-yl)azocan-2-one]
Second: Cc1cccc(C)c1C(=O)Nc1ncc([N+](=O)[O-])s1 [B-157, 2,6-Dimethyl-N-(5-nitrothiazol-2-yl)benzamide]
The Kd of the first is lower: 20 to 100 µM for the first, over 100 µM for the second. The first binds more tightly here.

Work on `CCc1nnc(CNC(=O)c2ccccc2C2CCNC2)s1` (centres unmarked) [B-141, N-((5-ethyl-1,3,4-thiadiazol-2-yl)methyl)-2-(pyrrolidin-3-yl)benzamide] yielded a Kd of 20 to 100 µM.
